Test results as given in US10669272B2, “Substituted naphthyridinone compounds useful as T cell activators” (BRISTOL-MYERS SQUIBB COMPANY, priority 2018, dated 2020).
pIC50: −log10 of the molar value. Like-named read-outs stand apart in the source and are kept apart here.

How the values were obtained:
[1] = target: T1, human DGKζ (Homo sapiens, UniProt Q13574); assay: DGKζ LIPGLO assay (extruded liposome substrate), in vitro DGK inhibition; assay type: biochemical; conditions: read-out: DGKz LIPGLO IC50
T1 construct: TVMV protease cleavage site (C); Hexa-His (C); made in house; host or cells: Sf9 insect cells (baculovirus, Bac-to-Bac)

[2] = target: T2, human DGKα (Homo sapiens, UniProt P23743); assay: DGKα LIPGLO assay (extruded liposome substrate), in vitro DGK inhibition; assay type: biochemical; conditions: read-out: DGKa LIPGLO IC50
T2 construct: TVMV protease cleavage site (C); Hexa-His (C); made in house; host or cells: Sf9 insect cells (baculovirus, Bac-to-Bac)
T2 sequence (P23743 with tags, fused parts or gaps): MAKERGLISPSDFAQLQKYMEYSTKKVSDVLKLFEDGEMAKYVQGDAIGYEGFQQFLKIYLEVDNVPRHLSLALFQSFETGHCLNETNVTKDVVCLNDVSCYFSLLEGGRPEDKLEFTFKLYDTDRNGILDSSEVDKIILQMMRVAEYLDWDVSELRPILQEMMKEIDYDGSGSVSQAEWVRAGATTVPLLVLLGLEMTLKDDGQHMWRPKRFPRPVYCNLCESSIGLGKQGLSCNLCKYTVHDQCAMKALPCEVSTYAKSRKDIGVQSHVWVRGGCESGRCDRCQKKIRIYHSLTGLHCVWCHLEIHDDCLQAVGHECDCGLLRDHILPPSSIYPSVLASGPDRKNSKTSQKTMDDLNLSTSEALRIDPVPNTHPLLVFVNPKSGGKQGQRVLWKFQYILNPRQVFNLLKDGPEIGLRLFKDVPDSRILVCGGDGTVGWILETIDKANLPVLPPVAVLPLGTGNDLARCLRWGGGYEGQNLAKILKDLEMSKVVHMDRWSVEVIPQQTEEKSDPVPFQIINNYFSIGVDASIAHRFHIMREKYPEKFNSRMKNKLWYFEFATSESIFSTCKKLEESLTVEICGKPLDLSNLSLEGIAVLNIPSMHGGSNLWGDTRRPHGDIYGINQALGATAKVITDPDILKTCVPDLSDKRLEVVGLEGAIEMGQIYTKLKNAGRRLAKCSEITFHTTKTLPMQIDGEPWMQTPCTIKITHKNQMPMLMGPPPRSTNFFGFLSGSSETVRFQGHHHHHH

T1 sequence (Q13574 with tags, fused parts or gaps isoform Q13574-4): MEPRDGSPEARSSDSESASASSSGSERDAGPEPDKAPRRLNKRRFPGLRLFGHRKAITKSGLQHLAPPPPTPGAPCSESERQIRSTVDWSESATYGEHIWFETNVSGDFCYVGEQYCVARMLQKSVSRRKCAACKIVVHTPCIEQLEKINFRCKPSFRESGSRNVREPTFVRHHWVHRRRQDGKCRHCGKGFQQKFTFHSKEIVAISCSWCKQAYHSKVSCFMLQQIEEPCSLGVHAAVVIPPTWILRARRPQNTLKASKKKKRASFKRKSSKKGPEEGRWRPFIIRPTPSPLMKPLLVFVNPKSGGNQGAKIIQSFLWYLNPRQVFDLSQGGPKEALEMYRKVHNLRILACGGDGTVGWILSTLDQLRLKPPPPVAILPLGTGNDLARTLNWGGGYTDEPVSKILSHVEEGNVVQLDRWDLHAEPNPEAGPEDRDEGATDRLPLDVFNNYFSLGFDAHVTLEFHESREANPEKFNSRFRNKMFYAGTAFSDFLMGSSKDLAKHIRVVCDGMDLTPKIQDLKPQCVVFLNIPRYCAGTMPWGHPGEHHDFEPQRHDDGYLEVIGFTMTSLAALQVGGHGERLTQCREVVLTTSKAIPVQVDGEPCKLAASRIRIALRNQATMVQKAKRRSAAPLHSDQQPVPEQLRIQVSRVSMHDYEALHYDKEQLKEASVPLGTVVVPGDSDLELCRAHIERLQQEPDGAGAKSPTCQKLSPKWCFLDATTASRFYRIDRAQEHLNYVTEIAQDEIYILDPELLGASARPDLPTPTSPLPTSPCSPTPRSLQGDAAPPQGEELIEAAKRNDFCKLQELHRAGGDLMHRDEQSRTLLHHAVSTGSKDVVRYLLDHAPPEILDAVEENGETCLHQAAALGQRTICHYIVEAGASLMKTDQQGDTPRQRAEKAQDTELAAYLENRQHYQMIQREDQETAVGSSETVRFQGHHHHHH

SMILES	pIC50 ([1]; liposome (LIPGLO) assay)	pIC50 ([2]; liposome (LIPGLO) assay)	pIC50 ([1]; DGKζ liposome (LIPGLO) assay)	pIC50 ([2]; DGKα liposome (LIPGLO) assay)
C[C@@H]1CN(C(c2ccc(F)cc2)c2ccc(C#N)cc2)[C@@H](CO)CN1c1cc(=O)n(C)c2ccc(C#N)nc12 (single isomer, unassigned) [Example 1177]	6.21	5.00	–	–
CC(c1ccc(F)cc1)N1C[C@H](C)N(c2c(C#N)c(=O)n(C)c3ccc(C#N)nc23)C[C@H]1C (single isomer, unassigned) [Example 783]	–	–	< 3.60	5.92
C[C@@H]1CN(c2cc(=O)n(C)c3ccc(C#N)nc23)[C@@H](C)CN1C(c1ccc(F)cc1)c1nnc(C2CC2)s1 (single isomer, unassigned) [Example 775]	–	–	5.18	5.24
C[C@@H]1CN(c2c(C#N)c(=O)n(C)c3ccc(C#N)nc23)[C@@H](C)CN1C(c1ccc(F)cc1)c1cscn1 (single isomer, unassigned) [Example 856]	–	–	5.25	6.48
CC(c1ccc(P(C)(C)=O)cc1)N1C[C@H](C)N(c2c(C#N)c(=O)n(C)c3ccc(C#N)nc23)C[C@H]1C (single isomer, unassigned) [Example 1295]	4.33	3.89	–	–
C[C@@H]1CN(c2cc(=O)n(C)c3ccc(C#N)nc23)[C@@H](C)CN1C(COC(F)F)c1ccc(F)cc1 (single isomer, unassigned) [Example 1188]	6.11	7.54	–	–
C[C@@H]1CN(c2c(C#N)c(=O)n(C)c3ccc(C#N)nc23)CCN1Cc1c(F)cccc1Cl [Example 984]	–	–	6.06	5.82
C[C@@H]1CN(c2c(C#N)c(=O)n(C)c3ccc(C#N)nc23)CCN1C(c1ccccc1)c1cc(F)cc(F)c1 (stereo partly shown) [Example 874]	–	–	5.66	4.85
COC(=O)c1ccc(C(C)N2C[C@H](C)N(c3c(C#N)c(=O)n(C)c4ccc(C#N)nc34)C[C@H]2C)cc1 (single isomer, unassigned) [Example 794]	–	–	3.92	4.62
C[C@@H]1CN(c2cc(=O)n(C)c3ccc(C#N)nc23)[C@@H](C)CN1C(c1cccc(F)c1)c1ccccn1 (single isomer, unassigned) [Example 374]	5.42	6.24	–	–
C[C@@H]1CN(c2cc(=O)n(C)c3ccc(C#N)nc23)[C@@H](C)CN1C(c1ccc(OC(F)(F)F)cc1)c1ccccn1 (stereo partly drawn) [Example 377, 8-((2S,5R)-2,5-dimethyl-4-(pyridin-2-yl(4-(trifluoromethoxy)phenyl)methyl)piperazin-1-yl)-5-methyl-6-oxo-5,6-dihydro-1,5-naphthyridine-2-carbonitrile]	5.41	6.51	–	–
C[C@@H]1CN(c2c(C#N)c(=O)n(C)c3ccc(C#N)nc23)CCN1C(c1ccc(F)cc1)c1ccncn1 (single isomer, unassigned) [Example 313]	5.32	5.64	–	–
C[C@@H]1CN(c2cc(=O)n(C)c3ccc(C#N)nc23)[C@@H](C)CN1C(c1ccc(OC(F)(F)F)cc1F)C1CC1 (stereo partly drawn) [Example 481, 8-((2S,5R)-4-(cyclopropyl(2-fluoro-4-(trifluoromethoxy)phenyl)methyl)-2,5-dimethylpiperazin-1-yl)-5-methyl-6-oxo-5,6-dihydro-1,5-naphthyridine-2-carbonitrile]	5.74	5.85	–	–
CC(C)Oc1ccccc1CN1C[C@H](C)N(c2cc(=O)n(C)c3ccc(C#N)nc23)C[C@H]1C [Example 595]	5.33	6.41	–	–
C[C@@H]1CN(c2cc(=O)n(C)c3ccc(C#N)nc23)[C@@H](C)CN1C(c1ccc(F)cc1)c1ccccc1N1CCOCC1 (single isomer, unassigned) [Example 664]	5.35	< 3.60	–	–
CC[C@H]1CN(C(c2ccc(F)cc2)c2nc(C3CC3)cs2)[C@H](CC)CN1c1cc(=O)n(C)c2ccc(C#N)nc12 (stereo partly shown) [Example 1066]	7.52	7.55	–	–
C[C@@H]1CN(c2cc(=O)n(C)c3ccc(C#N)nc23)[C@@H](C)CN1C(c1ccc(F)cc1)c1cnccn1 (single isomer, unassigned) [Example 675]	4.64	5.34	–	–
CC[C@@H]1CN(c2cc(=O)n(C)c3ccc(C#N)nc23)[C@@H](C)CN1C(C)c1c(F)cc(F)cc1F (single isomer, unassigned) [Example 1090]	5.74	5.39	–	–
CC[C@@H]1CN(c2cc(=O)n(C)c3ccc(C#N)nc23)[C@@H](C)CN1C(c1ccc(F)cc1)c1nc(C2CC2)no1 (stereo partly shown) [Example 1116]	7.89	7.51	–	–

SMILES	pIC50 ([1]; liposome (LIPGLO) assay)	pIC50 ([2]; liposome (LIPGLO) assay)	pIC50 ([1]; DGKζ liposome (LIPGLO) assay)	pIC50 ([2]; DGKα liposome (LIPGLO) assay)
Cc1cc(C(C)N2C[C@H](C)N(c3cc(=O)n(C)c4ccc(C#N)nc34)C[C@H]2C)no1 (single isomer, unassigned) [Example 648]	5.41	6.23	–	–
Cn1c(=O)c(C#N)c(N2CCN(C(c3ccc(F)cc3)c3ccc(F)cc3)C(C(N)=O)C2)c2nc(C#N)ccc21 (single isomer, unassigned) [Example 58, 1-(bis (4-fluorophenyl)methyl)-4-(3,6-dicyano-1-methyl-2-oxo-1,2-dihydro-1,5-naphthyridin-4-yl)piperazine-2-carboxamide]	3.74	5.14	–	–
CC[C@H]1CN(C(C)c2ccc(OC(F)(F)F)cc2)[C@H](COC)CN1c1cc(=O)n(C)c2ccc(C#N)nc12 (single isomer, unassigned) [Example 1408]	7.08	7.72	–	–
Cc1ccc(C(c2ccc(Cl)cc2)N2C[C@H](C)N(c3c(C#N)c(=O)n(C)c4ccc(C#N)nc34)C[C@H]2C)cc1 (stereo partly shown) [Example 825]	–	–	5.49	4.64
Cn1c(=O)cc(N2CCN(C(c3ccc(F)cc3)c3ccc(F)cc3)CC2CF)c2nc(C#N)ccc21 (racemic) [Example 149, 8-(4-(bis(4-fluorophenyl)methyl)-2-(fluoromethyl)piperazin-1-yl)-5-methyl-6-oxo-5,6-dihydro-1,5-naphthyridine-2-carbonitrile]	4.68	4.46	–	–
C[C@@H]1CN(c2c(C#N)c(=O)n(C)c3ccc(C#N)nc23)[C@@H](C)CN1C(c1ccc(F)cc1)c1cc(C2CC2)on1 (single isomer, unassigned) [Example 869]	–	–	4.85	4.77
CC[C@H]1CN(C(c2cccc(F)c2)c2ccc(OC)cn2)[C@H](CC)CN1c1cc(=O)n(C)c2ccc(C#N)nc12 (stereo partly shown) [Example 1047]	6.57	6.68	–	–
CC(c1cc(F)c(F)cc1Cl)N1C[C@H](C)N(c2cc(=O)n(C)c3ccc(C#N)nc23)C[C@H]1C (stereo partly drawn) [Example 486, 8-((2S,5R)-4-(1-(2-chloro-4,5-difluorophenyl)ethyl)-2,5-dimethylpiperazin-1-yl)-5-methyl-6-oxo-5,6-dihydro-1,5-naphthyridine-2-carbonitrile]	4.85	4.57	–	–
C[C@@H]1CN(c2cc(=O)n(C)c3ccc(C#N)nc23)[C@@H](C)CN1C(c1ccc(F)cc1)c1cn(C)cn1 (stereo partly shown) [Example 708]	4.43	6.00	–	–
Cc1ccc(C(c2ccc(C)cc2)N2C[C@H](C)N(c3cc(=O)n(C)c4ccc(C#N)nc34)C[C@H]2CO)cc1 [Example 1150, 8-((2S,5S)-4-(di-p-tolylmethyl)-5-(hydroxymethyl)-2-methylpiperazin-1-yl)-5-methyl-6-oxo-5,6-dihydro-1,5-naphthyridine-2-carbonitrile]	4.74	4.74	–	–
C[C@@H]1CN(c2cc(=O)n(C)c3ccc(C#N)nc23)[C@@H](C)CN1C(c1cccc(F)c1)c1ccc(C(F)(F)F)cn1 (stereo partly drawn) [Example 370, 8-((2S,5R)-4-((3-fluorophenyl)(5-(trifluoromethyl)pyridin-2-yl)methyl)-2,5-dimethylpiperazin-1-yl)-5-methyl-6-oxo-5,6-dihydro-1,5-naphthyridine-2-carbonitrile]	6.12	5.96	–	–
CC(C)[C@H]1CN(c2c(C#N)c(=O)n(C)c3ccc(Br)nc23)CCN1C(c1ccc(F)cc1)c1ccc(F)cc1 [Example 11, (S)-4-(4-(bis(4-fluorophenyl)methyl)-3-isopropylpiperazin-1-yl)-6-bromo-1-methyl-2-oxo-1,2-dihydro-1,5-naphthyridine-3-carbonitrile]	3.62	5.44	–	–
Cc1cccc(CN2CCN(c3c(C#N)c(=O)n(C)c4ccc(C#N)nc34)C[C@H]2C)c1 [Example 1012]	–	–	5.85	6.46
C[C@@H]1CN(c2c(C#N)c(=O)n(C)c3ccc(C#N)nc23)CCN1C(c1ccc(Cl)cc1)c1ccc(Cl)cn1 (stereo partly shown) [Example 931]	–	–	5.57	6.10
C[C@@H]1CN(c2cc(=O)n(C)c3ccc(C#N)nc23)[C@@H](C)CN1C(c1ccc(F)cc1)c1cncc(F)c1 (stereo partly drawn) [Example 400, 8-((2S,5R)-4-((4-fluorophenyl)(5-fluoropyridin-3-yl)methyl)-2,5-dimethylpiperazin-1-yl)-5-methyl-6-oxo-5,6-dihydro-1,5-naphthyridine-2-carbonitrile]	5.49	5.38	–	–
C[C@@H]1CN(c2cc(=O)n(C)c3ccc(C#N)nc23)[C@@H](C)CN1C(c1ccc(F)cc1)c1cccc2ccnn12 (single isomer, unassigned) [Example 694]	6.92	6.08	–	–
C[C@@H]1CN(c2c(C#N)c(=O)n(C)c3ccc(Br)nc23)CCN1C(c1ccc(Cl)cc1)c1ccc(Cl)cc1 [Example 102, (R)-4-(4-(bis(4-chlorophenyl)methyl)-3-methylpiperazin-1-yl)-6-bromo-1-methyl-2-oxo-1,2-dihydro-1,5-naphthyridine-3-carbonitrile]	5.08	5.54	–	–
C[C@@H]1CN(c2cc(=O)n(C)c3ccc(C#N)nc23)[C@@H](C)CN1C(c1ccc(Cl)cc1)c1ccc(F)c2c1OC(C)(C)C2 (single isomer, unassigned) [Example 459]	5.96	4.44	–	–
C[C@@H]1CN(c2cc(=O)n(C)c3ccc(C#N)nc23)[C@@H](C)CN1C(c1cccc(F)c1)c1ccc(C(F)(F)F)cn1 (single isomer, unassigned) [Example 371]	5.68	5.52	–	–
